Measurements published in ChEMBL document CHEMBL1201862, “PubChem BioAssay data set” (2004).
The source made the active and inactive calls.

Legend:
[1] = target: Peroxisome proliferator-activated receptor gamma/Nuclear receptor coactivator 2 (Homo sapiens, UniProt P37231); assay: (§1) TR-FRET dose response biochemical High Throughput Screening assay for agonists of the steroid receptor coactivator 2 (SRC-2) recruitment by the peroxisome proliferator-activated receptor gamma (PPAR gamma): non-selective agonists. [Related pubchem assays: 1297, 1032 ]; assay type: functional
[2] = target: Peroxisome proliferator-activated receptor gamma/Nuclear receptor coactivator 1 (Homo sapiens, UniProt P37231); assay: as §1, with “1 (SRC-1)” for “2 (SRC-2)”, “assays (depositor defined):AID1300, AID1808, AID504735, AID631]” for “assays: 1297, 1032 ]”; assay type: protein assay
Chain of Peroxisome proliferator-activated receptor gamma/Nuclear receptor coactivator 1 (P37231 whole entry): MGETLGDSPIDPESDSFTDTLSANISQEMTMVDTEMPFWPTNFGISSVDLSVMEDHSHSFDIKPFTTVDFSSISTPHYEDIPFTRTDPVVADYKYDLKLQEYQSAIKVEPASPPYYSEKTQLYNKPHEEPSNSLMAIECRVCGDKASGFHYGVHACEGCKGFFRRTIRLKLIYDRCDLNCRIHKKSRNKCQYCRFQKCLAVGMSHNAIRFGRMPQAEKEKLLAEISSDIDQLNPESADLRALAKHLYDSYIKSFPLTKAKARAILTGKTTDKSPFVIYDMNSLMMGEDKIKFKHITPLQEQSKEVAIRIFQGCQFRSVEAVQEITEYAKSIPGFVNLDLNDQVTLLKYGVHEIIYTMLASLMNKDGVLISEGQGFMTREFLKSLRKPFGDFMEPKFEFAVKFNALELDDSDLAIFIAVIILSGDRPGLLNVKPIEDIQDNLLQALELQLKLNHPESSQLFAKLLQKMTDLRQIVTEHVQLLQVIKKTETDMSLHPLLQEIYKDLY
Chain of Peroxisome proliferator-activated receptor gamma/Nuclear receptor coactivator 1 (Q15788 whole entry, further chain): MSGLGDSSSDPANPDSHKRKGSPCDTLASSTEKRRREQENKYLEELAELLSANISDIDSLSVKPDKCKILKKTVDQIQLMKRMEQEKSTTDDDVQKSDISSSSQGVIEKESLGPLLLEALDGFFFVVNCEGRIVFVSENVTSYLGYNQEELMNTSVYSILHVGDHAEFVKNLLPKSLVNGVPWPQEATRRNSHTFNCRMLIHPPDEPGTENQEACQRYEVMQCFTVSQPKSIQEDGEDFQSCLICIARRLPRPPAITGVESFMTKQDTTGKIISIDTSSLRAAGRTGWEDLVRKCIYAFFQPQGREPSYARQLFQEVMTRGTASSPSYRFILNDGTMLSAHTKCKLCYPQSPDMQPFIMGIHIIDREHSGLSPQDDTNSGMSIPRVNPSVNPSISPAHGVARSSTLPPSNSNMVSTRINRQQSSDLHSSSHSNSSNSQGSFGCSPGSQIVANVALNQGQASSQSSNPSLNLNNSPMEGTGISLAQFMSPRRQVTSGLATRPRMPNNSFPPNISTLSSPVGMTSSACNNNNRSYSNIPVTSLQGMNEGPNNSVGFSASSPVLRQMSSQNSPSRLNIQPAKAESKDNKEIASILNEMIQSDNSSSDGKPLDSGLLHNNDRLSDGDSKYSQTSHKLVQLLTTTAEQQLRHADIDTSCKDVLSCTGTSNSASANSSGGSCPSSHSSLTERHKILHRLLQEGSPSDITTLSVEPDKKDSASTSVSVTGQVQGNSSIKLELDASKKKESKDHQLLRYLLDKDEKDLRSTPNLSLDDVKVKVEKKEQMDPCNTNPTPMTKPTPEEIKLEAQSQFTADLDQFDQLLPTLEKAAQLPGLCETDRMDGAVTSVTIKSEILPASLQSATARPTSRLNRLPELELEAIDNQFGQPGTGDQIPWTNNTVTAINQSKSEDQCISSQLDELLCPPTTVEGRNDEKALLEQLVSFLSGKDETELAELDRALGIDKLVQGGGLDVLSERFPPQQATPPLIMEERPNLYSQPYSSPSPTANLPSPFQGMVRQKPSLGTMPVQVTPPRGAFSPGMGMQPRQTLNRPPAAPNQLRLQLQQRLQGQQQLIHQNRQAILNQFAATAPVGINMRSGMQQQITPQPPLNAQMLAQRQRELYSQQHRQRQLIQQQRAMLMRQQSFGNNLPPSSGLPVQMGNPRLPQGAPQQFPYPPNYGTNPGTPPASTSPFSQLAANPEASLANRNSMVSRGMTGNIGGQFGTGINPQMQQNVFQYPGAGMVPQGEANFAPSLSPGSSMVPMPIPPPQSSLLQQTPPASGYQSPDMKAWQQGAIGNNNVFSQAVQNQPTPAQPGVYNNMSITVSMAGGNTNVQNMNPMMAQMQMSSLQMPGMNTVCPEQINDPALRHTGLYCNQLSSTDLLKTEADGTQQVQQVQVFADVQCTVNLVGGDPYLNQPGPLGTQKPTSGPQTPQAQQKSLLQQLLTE

[3] = target: Peroxisome proliferator-activated receptor gamma/Nuclear receptor coactivator 3 (Homo sapiens, UniProt P37231); assay: as §1, with “3 (SRC-3)” for “2 (SRC-2)”, “1301 (Confirmation screen.), 1048 (Primary screen.)]” for “1297, 1032 ]”; assay type: functional
Cytochrome P450 2D6 = Cytochrome P450 2D6 (Homo sapiens, UniProt P10635);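 further: CYP2D6 member of a cytochrome P450 panel assay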
Chain of Cytochrome P450 2D6 (P10635 whole entry, the tested form may be a part): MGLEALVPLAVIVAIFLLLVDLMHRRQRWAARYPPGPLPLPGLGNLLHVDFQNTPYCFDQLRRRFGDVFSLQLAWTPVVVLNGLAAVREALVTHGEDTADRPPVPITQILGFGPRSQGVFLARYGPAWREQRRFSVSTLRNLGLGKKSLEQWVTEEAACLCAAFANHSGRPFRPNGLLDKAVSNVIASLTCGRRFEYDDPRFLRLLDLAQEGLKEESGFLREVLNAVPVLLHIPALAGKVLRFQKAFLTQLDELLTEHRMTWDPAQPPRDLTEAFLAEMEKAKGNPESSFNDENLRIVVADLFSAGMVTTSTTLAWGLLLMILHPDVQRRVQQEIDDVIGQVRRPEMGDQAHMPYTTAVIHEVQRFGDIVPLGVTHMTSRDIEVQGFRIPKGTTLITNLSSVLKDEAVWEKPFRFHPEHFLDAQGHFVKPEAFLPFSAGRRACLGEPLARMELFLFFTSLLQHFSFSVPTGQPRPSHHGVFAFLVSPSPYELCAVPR

[4] = HIV-1 AD8 envelope cell-cell fusion blockers – cherry-pick, dose response (AID 652062); assay type: functional, cell-based;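 further: luciferase signal from cell-cell fusion driven by HIV-1 clade B AD8 Env; potency is for inhibitors of fusion seen as a drop in luminescence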
[5] = blockers of HIV-1 ZM109 envelope-driven cell-cell fusion – HeLa effector, CEM target cells, luciferase, cherry-pick, dose response (AID 652058); assay type: functional, cell-based;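 further: luciferase signal from HIV-1 Env mediated cell-cell fusion of effector and target cells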
[6] = HEK-293T viability loss after treatment – luminescence, T-cell screen hits, cytotoxicity control for TCR NF-kB inhibitor project, dose response (AID 489026); assay type: functional, cell-based;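 further: cells exposed to compound about 14 hours before the viability readout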
[7] = blockers of HIV-1 envelope-mediated cell-cell fusion – cherry-pick, dose response (AID 652057); assay type: functional, cell-based
[8] = off-target signal loss in HeLa-CEM21 co-culture – HeLa F-luc CTL cells, cherry-picked, counter-screen for HIV-1 Env fusion inhibitor project, dose response (AID 652040); assay type: functional, cell-based;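 further: potency for signal decrease marking cytotoxic or nonspecific inhibition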
Cytochrome P450 1A2 = target: T1, Cytochrome P450 1A2 (Homo sapiens, UniProt P05177);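 further: PubChem cytochrome P450 panel assay, CYP1A2 panel member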
T1 sequence (P05177 whole entry): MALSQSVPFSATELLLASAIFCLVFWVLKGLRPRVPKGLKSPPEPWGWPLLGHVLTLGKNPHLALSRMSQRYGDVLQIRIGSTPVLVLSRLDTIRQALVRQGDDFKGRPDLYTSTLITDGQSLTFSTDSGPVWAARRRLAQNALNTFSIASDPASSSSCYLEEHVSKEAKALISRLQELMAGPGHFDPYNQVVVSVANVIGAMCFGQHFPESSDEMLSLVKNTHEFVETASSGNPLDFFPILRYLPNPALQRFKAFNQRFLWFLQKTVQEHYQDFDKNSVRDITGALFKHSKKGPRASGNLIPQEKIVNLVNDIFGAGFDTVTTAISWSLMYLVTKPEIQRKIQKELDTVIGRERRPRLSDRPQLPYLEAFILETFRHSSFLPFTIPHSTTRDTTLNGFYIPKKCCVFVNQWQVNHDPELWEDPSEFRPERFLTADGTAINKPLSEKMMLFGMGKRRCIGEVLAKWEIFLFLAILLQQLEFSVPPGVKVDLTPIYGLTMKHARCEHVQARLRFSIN

[9] = Luminescence Cell-Based Dose Retest to Confirm Inhibitors of Cancer Stem Cells. [Related pubchem assays (depositor defined):AID2717, AID2721]; assay type: functional; conditions: Homo sapiens
[10] = target: Voltage-gated inwardly rectifying potassium channel KCNH2 (Homo sapiens, UniProt Q12809); conditions: Potency;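 further: confirmatory quantitative high-throughput screen measuring inhibition of hERG channel activity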
Chain of Voltage-gated inwardly rectifying potassium channel KCNH2 (Q12809 whole entry): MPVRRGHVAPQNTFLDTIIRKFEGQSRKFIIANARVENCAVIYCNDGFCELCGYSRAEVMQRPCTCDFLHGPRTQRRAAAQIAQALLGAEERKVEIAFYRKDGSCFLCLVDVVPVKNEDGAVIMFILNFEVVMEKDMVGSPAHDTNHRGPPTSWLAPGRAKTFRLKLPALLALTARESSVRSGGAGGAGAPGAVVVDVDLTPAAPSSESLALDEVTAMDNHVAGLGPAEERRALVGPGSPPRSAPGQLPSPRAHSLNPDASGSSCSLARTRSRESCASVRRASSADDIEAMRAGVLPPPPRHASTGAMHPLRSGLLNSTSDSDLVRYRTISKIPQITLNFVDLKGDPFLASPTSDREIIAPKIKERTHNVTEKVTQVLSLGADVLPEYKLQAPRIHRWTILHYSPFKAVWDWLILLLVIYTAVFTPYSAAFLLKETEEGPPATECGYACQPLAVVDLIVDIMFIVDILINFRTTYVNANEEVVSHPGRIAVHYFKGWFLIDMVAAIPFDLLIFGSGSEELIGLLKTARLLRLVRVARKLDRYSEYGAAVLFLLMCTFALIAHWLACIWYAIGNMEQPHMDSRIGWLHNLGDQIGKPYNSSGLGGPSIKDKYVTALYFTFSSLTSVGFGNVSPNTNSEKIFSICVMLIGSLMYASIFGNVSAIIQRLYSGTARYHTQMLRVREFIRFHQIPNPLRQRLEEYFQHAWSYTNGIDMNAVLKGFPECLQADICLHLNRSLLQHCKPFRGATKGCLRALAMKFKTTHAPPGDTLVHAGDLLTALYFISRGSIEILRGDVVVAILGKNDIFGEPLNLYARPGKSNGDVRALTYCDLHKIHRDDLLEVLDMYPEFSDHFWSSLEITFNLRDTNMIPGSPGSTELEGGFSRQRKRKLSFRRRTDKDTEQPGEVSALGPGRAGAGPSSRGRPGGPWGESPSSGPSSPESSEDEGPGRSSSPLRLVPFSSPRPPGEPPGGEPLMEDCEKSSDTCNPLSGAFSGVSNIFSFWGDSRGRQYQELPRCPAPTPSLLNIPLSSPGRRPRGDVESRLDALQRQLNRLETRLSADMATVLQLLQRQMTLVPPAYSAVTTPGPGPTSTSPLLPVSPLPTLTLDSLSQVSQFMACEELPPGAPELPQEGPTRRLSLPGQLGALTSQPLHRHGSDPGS

[11] = NIH3T3 cell viability loss – ATP luminescence, mouse fibroblasts, counter-screen, dose response (AID 2010); assay type: functional, cell-based;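 further: cells exposed to compound for about 90 hours before reading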
[12] = Trypanosoma cruzi growth suppression in host cells – NIH3T3 host cells, beta-gal luminescence, confirmation (AID 2044); assay type: functional, cell-based;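 further: intracellular parasites grown in NIH/3T3 mouse fibroblasts as host cells; luminescent beta-galactosidase reporter signal from transgenic T. cruzi replicating inside host cells; inhibitors lower the luminescence signal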
[13] = target: T2, Microphthalmia-associated transcription factor (Homo sapiens, UniProt O75030); assay: reducers of TRPM1 reporter luminescence, concentration series – cell-based, SK-MEL-5, cherry-picked, set 3, MITF inhibitor project, dose response (AID 493073); assay type: functional;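 further: SK-MEL-5 melanoma cells with luciferase driven by the MITF target TRPM1 promoter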
T2 sequence (O75030 whole entry): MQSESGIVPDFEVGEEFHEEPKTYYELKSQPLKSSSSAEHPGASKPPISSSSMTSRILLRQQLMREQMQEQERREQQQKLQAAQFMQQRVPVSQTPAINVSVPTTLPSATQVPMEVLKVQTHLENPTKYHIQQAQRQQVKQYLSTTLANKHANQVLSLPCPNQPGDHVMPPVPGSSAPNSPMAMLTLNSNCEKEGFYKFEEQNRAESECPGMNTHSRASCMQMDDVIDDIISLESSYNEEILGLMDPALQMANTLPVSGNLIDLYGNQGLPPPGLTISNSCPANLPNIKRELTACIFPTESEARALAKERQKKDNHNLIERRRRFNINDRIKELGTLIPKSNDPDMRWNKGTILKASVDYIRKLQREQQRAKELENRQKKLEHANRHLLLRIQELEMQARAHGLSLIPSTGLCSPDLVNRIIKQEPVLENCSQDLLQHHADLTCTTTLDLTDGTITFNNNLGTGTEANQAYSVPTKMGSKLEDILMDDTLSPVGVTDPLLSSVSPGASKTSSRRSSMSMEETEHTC

SUMO-activating enzyme [14] = target: T3, SUMO-activating enzyme (Homo sapiens, UniProt Q9UBT2); assay: blockers of SAE1/SAE2–UBC9 SUMO transfer – biochemical, HTRF, uHTS, primary screen (AID 2006); assay type: protein-complex assay
T3 sequence (Q9UBE0 whole entry): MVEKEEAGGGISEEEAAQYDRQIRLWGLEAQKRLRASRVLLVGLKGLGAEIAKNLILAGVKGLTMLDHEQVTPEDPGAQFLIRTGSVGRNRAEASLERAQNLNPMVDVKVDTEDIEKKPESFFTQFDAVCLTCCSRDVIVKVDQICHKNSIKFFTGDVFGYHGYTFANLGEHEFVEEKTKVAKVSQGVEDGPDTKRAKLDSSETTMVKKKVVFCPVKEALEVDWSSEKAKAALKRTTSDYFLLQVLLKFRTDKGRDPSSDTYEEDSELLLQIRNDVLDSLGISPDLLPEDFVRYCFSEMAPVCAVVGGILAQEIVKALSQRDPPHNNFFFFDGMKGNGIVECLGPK
T3 sequence (Q9UBT2 whole entry): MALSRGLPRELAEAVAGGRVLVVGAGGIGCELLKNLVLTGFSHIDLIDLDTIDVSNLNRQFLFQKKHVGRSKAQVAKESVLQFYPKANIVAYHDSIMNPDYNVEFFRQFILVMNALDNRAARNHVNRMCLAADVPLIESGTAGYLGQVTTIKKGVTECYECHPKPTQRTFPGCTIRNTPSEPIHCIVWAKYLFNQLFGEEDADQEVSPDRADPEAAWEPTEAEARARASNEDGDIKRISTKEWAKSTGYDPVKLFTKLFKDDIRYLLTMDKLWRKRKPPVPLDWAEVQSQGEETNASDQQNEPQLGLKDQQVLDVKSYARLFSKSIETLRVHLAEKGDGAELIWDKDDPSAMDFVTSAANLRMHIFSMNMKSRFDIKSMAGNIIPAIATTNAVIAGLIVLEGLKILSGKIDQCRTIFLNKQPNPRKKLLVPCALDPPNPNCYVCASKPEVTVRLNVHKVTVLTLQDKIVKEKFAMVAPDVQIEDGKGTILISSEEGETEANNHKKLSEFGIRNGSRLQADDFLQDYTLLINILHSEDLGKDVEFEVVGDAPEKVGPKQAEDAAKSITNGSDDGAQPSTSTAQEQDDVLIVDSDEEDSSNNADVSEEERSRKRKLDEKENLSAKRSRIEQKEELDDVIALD

SUMO-activating enzyme [15] = target: T3, SUMO-activating enzyme; assay: blockers of UBC9-mediated SUMO conjugation – biochemical, AlphaScreen, SUMOylation inhibitor project, confirmation (AID 2018); assay type: functional
Vero [16] = assay: mammalian cell viability reduction – secondary assay, cytotoxicity control for West Nile virus antiviral project, dose response (AID 1650); assay type: functional; conditions: Chlorocebus sabaeus
[17] = target: Induced myeloid leukemia cell differentiation protein Mcl-1 (Homo sapiens, UniProt Q07820); assay type: functional
Chain of Induced myeloid leukemia cell differentiation protein Mcl-1 (Q07820 whole entry): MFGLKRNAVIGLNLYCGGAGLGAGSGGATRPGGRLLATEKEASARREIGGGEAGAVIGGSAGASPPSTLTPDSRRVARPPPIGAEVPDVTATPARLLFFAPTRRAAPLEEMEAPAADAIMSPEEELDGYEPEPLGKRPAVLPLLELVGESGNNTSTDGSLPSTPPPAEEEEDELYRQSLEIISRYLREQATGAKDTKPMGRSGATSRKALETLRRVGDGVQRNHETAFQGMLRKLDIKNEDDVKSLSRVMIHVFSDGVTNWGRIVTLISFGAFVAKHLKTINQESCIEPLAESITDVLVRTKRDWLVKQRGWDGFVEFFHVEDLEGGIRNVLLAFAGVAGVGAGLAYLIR

[18] = target: DNA dC->dU-editing enzyme APOBEC-3A (Homo sapiens, UniProt P31941); assay: Dose Response confirmation of small molecule APOBEC3A DNA Deaminase Inhibitors via a fluorescence-based single-stranded DNA deaminase assay. [Related pubchem assays (depositor defined):AID493011, AID493024]; assay type: functional
[19] = target: T4, Carboxy-terminal domain RNA polymerase II polypeptide A small phosphatase 1 (Homo sapiens, UniProt Q9GZU7); assay: CTDSP1 inhibitors, concentration-response, biochemical, absorbance readout, ultra-high-throughput screen actives (AID 540297); assay type: functional
T4 sequence (Q9GZU7 whole entry): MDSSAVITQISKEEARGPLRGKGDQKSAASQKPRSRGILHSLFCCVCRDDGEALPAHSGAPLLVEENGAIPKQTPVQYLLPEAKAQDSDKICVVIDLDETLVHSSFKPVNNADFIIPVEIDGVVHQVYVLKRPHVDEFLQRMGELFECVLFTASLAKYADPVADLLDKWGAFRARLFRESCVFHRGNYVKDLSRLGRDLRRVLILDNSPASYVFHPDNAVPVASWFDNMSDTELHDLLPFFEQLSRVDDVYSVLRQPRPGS

[20] = target: DNA dC->dU-editing enzyme APOBEC-3G (Homo sapiens, UniProt Q9HC16); assay type: functional;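 further: Dose-response counterscreen measuring inhibition of APOBEC3G DNA deaminase activity, run while confirming APOBEC3A inhibitors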
Streptococcus = assay: GAS UMAA2166 growth inhibition – luminescence, BacTiterGlo, counter-screen for streptokinase expression inhibitor project, dose response (AID 1915); assay type: functional, organism-based;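 further: potency for reduction of bacterial viability or growth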
Genome polyprotein = Genome polyprotein (dengue virus type 2, UniProt P29990); assay: flavivirus cap methylation enzyme inhibition – biochemical, confirmation dose response, primary screen (AID 588689); assay type: functional
[21] = tested on: Streptococcus sp. 'group A'; assay: Streptococcus pyogenes SK(-)GAS viability under kanamycin – luminescence, BacTiterGlo, confirmation, counter-screen for streptokinase expression inhibitor project, dose response (AID 1900); assay type: functional, organism-based
Vero [22] = assay: viability of Vero cells under compound – cytotoxicity control for flavivirus capping enzyme inhibitors (AID 588742); assay type: functional; conditions: Chlorocebus sabaeus
Streptokinase A = target: T5, Streptokinase A (Streptococcus pyogenes serotype M1, UniProt P10520); assay: viability-normalized secreted streptokinase activity reduction – plasminogen activation absorbance, OD405, dose response (AID 1914); assay type: functional, Streptococcus pyogenes M1 GAS;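 further: secreted streptokinase activity via plasminogen activation per viability signal from cell pellet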
T5 sequence (P10520 whole entry): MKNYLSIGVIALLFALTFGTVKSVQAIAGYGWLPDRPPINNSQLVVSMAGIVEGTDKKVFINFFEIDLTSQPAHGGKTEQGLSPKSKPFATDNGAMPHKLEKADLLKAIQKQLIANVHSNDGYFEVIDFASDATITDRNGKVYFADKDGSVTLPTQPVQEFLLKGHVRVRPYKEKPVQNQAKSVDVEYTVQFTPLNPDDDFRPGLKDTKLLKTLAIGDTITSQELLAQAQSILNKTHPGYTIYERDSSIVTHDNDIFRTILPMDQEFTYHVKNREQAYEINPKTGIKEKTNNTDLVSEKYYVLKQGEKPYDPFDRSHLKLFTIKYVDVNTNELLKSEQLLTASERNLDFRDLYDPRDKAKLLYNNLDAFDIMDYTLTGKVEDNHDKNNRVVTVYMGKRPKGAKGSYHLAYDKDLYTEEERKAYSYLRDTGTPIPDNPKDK

Cytochrome P450 3A4 = Cytochrome P450 3A4 (Homo sapiens, UniProt P08684);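 further: CYP3A4 tested as one member of a cytochrome P450 panel screen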
Cytochrome P450 2C9 = Cytochrome P450 2C9 (Homo sapiens, UniProt P11712)

Compound: CCOc1ccc2c(c1)nc(SCC(=O)c1ccc(Br)s1)n2C
- EC50 [1]: 22.9 µM (not active)
- EC50 [2]: > 79.4 µM (inactive)
- EC50 [3]: > 79.4 µM (not active)
- AC50 (Cytochrome P450 2D6): 12.6 µM (inconclusive)

Compound: O=C(Nc1ccc(C(F)(F)F)cc1)c1cccn(Cc2ccc3c(c2)OC(F)(F)O3)c1=O
- AC50 [4]: 6 µM (active)
- AC50 [5]: 0.59 µM (active)
- IC50 [6]: > 80 µM (inactive)
- AC50 [7]: 22.5 µM (active)
- AC50 [8]: 50.7 µM (active)
- AC50 (Cytochrome P450 1A2): 25.1 µM (inconclusive)
- AC50 [9]: 3.68 µM (active)

Compound: CN1CCC23CCCC[C@H]2C1Cc1ccc(O)cc13 (stereo partly specified)
- AC50 [10]: 2.51 µM (inconclusive)

Compound: CN(Cc1ccccc1)C1=CC(=[N+]2CCCC2)CC(C)(C)C1
- EC50 [11]: > 60 µM (not active)
- EC50 [12]: 0.171 µM (active)
- AC50 [13]: 1.55 µM (active)
- IC50 [6]: > 80 µM (inactive)

Compound: C=C(C)COc1ccc(-c2[nH]nc(C)c2-c2ccc(OC)c(OC)c2)c(O)c1
- IC50 [6]: 44.6 µM (inactive)
- AC50 [9]: 1.36 µM (active)

Compound: O=C(Nc1ccc(S(=O)(=O)N2CCCCC2)cc1)c1ccc(CN2CCOCC2)cc1
- IC50 [6]: 27.2 µM (inactive)

Compound: CC1=C(C(=O)Nc2ccccc2)C(c2ccc(C)cc2)NC(Nc2nc3ccccc3o2)=N1 (stereo unspecified)
- IC50 (SUMO-activating enzyme [14]): 4.07 µM (active)
- EC50 [11]: 22.3 µM (active)
- EC50 [12]: 0.982 µM (active)
- IC50 (SUMO-activating enzyme [15]): 20.2 µM (active)
- CC50 (Vero [16]): > 100 µM (active)

Compound: N#Cc1c2nc3ccccc3nc2n2cc(NC(=O)c3ccc(F)cc3)ccc12
- IC50 (SUMO-activating enzyme [14]): 2.96 µM (active)
- IC50 (SUMO-activating enzyme [15]): 1.8 µM (active)
- IC50 [17]: 1.57 µM (active)

Compound: C[N+]1(CC(=O)OCCCc2ccccc2)CCOCC1
- IC50 [18]: 1.27 µM (active)
- IC50 [19]: 6.39 µM (active)
- IC50 [20]: 1.93 µM (active)
- AC50 (Cytochrome P450 2D6): 12.6 µM (inconclusive)

Compound: Brc1ccc(Oc2ccc(Br)cc2Br)c(Br)c1
- AC50 [10]: 17.8 µM (inconclusive)

Compound: C[C@H]1COC2=C1C(=O)C(=O)c1c2ccc2c1CCCC2(C)C [CRYPTOTANSHINONE]
- EC50 (Streptococcus): 14.1 µM (active)
- IC50 (Genome polyprotein): 90.1 µM (active)
- EC50 [21]: 5.17 µM (active)
- CC50 (Vero [22]): 33.4 µM (active)
- EC50 (Streptokinase A): 14.8 µM (active)

Compound: C/C=C1/C(=O)C[C@H]2[C@@H]3CCC4=CC(=O)CC[C@]4(C)[C@H]3CC[C@]12C [E-GUGGULSTERONE]
- AC50 [10]: 17.8 µM (inconclusive)

Compound: COc1ccc(-n2nc(C(F)(F)F)cc2-c2ccc(Cl)cc2)cc1 [SC-560]
- AC50 (Cytochrome P450 3A4): 39.8 µM (inconclusive)
- AC50 (Cytochrome P450 2C9): 25.1 µM (inconclusive)
- AC50 [10]: 31.6 µM (inconclusive)
